US4599331A, “Etianic acids as antiangiogenics” (Syntex (U.S.A.) Inc., priority 1984, dated 1986)
Values joined by “and” are separate entries in the source; they are usually repeats but may differ in a detail not shown here. Equal values may be shown once.

Experiments:
Type in all cases: in vivo, Male Syrian Golden hamsters
Epidermal Growth Factor = assay: hamster cheek pouch (HCP) angiogenesis inhibition, EGF stimulus; conditions: Table 1; 10 μg EGF; between 0.5 and 4 mg/kg s.c. daily; each number independent result, average of six animals
Protocol: (§1) Each compound of the series was also tested for anti-angiogenic activity by an in vivo test that measured vascularization in a hamster's cheek pouch in response to either an angiogenic polypeptide growth factor, epidermal growth factor (EGF) or an induced […].
(§2) In this example, the in vivo angiogenesis inhibition activity of etianic acid esters was tested. Male Syrian Golden hamsters, weighing between 120 g and 150 g were anaesthetized by intraperitoneal (I.P.) injection of a rodent anaesthetic mixture consisting of 50 mg/kg ketamine hydrochloride, 5 mg/kg xylazine and 1 mg/kg acepromazine. The left cheek pouch of each animal was everted with a pincet and pinned down to a plexiglass-rubber stage and observed through a Zeiss stereomicroscope. 10 μg of EGF or 3×10^5 Hamster Melanoma RPM1 1846 tumor cells in 10 μl Cibachrome Blue agarose (Amicon) were injected subcutaneously in the left lower quadrant of the pouch with a Hamilton syringe.
(§3) The pouch was then reinserted and animals were kept under observation until recovered from anaesthesia.
(§4) The animals were dosed daily with one test compound, starting one day before stimulus injection and continuing until observation. The test compounds were dissolved in a minimum volume of ethanol and diluted in sterile phosphate buffer solution. […]
(§5) Either five days or twelve days after the EGF or tumor cell injection, animals were anaesthetized by I.P. injection of the rodent anaesthetic mixture. The pouch was everted on the stage and examined under the stereomicroscope. Pictures were taken with a 35 mm using Kodak Tungsten 50 professional films.
(§6) The following subjective scoring was used for evaluating the photographs:
(§7) 1: minimal branching of vessels in the vicinity of injection site.
(§8) 2: new vessels reach injection site, area involved is minimal (<50% of area surrounding injection site).
(§9) 3: many vessels reach and cross injection site, new vessels are tortuous, (>50% of area surrounding injection site).
(§10) 4: "full blown", many tortuous vessels, leakages, hemorrhages, 100% of area around injection site, invasion of new vessels into non-injected areas.
(§11) Results are expressed as the mean of the score. The results are shown in Tables 1 and 2 are percent inhibition of HCP Stimulus.

[1] = test system: Hamster Melanoma RPM1 1846 tumor cells; assay: hamster cheek pouch (HCP) angiogenesis inhibition, 1846 tumor cell stimulus; conditions: Table 1; 3×10^5 tumor cells; between 0.5 and 4 mg/kg s.c. daily; each number independent result, average of six animals
Protocol: as §1, §2, §3, §4, §5, §6, §7, §8, §9, §10
(§12) In the case of the tumor, tumor size was also determined. (See Table 4)
as §11

[2] = test system: Hamster Melanoma RPM1 1846 tumor cells; assay: Inhibition of tumor growth (2 week assay); conditions: Table 3, dose 0.8 mg/kg
Protocol: as §2, §3
The animals were dosed daily with one test compound, starting one day before stimulus injection and continuing until observation. The test compounds were dissolved in a minimum volume of ethanol and diluted in sterile phosphate buffer solution. Then between 0.5 and 4 mg/kg of the test compound was injected subcutaneously.
as §5, §6, §7, §8, §9, §10, §12, §11

Compound | % Inhibition HCP Stimulus Epidermal Growth Factor (Epidermal Growth Factor) | % Inhibition HCP Stimulus 1846 [1] | Angiogenesis % Inh. [2] | Tumor area % (inhibition of tumor growth) [2] | Angiogenesis score ([2]; mean of score 0 (no new vessels) to 4 (full blown), untreated 3.1 [A], 2.9 [B]) | Tumor area Mn (mm^2) ([2]; untreated 40.7 ± 16.2 [A], 27.5 ± 15.3 [B])
CCCC(=O)O[C@]1(C(=O)OC)[C@@H](C)C[C@H]2[C@@H]3CC(F)C4=CC(=O)C=C[C@]4(C)[C@@]3(F)[C@@H](O)C[C@@]21C (stereo partly drawn) [compound 4] | 100% and 78% | 26% |  |  |  | 
CCC(=O)O[C@]1(C(=O)OC)[C@@H](C)C[C@H]2[C@@H]3CCC4=CC(=O)C=C[C@]4(C)[C@@]3(F)[C@@H](O)C[C@@]21C [compound 1] | 70% and 77% | 40% |  |  |  | 
CCCC(=O)O[C@]1(C(=O)OC)[C@H](C)C[C@H]2[C@@H]3CC(F)C4=CC(=O)C=C[C@]4(C)[C@@]3(F)[C@@H](O)C[C@@]21C (stereo partly drawn) [compound 9] | 100% | 32% | 29% | 86% | 2.2 | 5.7 ± 5.9 mm^2
CCC(=O)O[C@]1(C(=O)OC)[C@H](C)C[C@H]2[C@@H]3CC(F)C4=CC(=O)C=C[C@]4(C)[C@@]3(F)[C@@H](O)C[C@@]21C (stereo partly drawn) [compound 7] | 57% |  |  |  |  | 
CCC(=O)O[C@]1(C(=O)OC)[C@@H](C)C[C@H]2[C@@H]3CC(F)C4=C(F)C(=O)C=C[C@]4(C)[C@@]3(F)[C@@H](O)C[C@@]21C (stereo partly drawn) [compound 3] | 95% and 91% | 70% |  |  |  | 
CCC(=O)O[C@]1(C(=O)OC)[C@H](C)C[C@H]2[C@@H]3CC(F)C4=C(F)C(=O)C=C[C@]4(C)[C@@]3(F)[C@@H](O)C[C@@]21C (stereo partly drawn) [compound 8] | 100% and 72% and 82% | 41% and 58% and 75% |  |  |  | 
